Measurements: US12473305B2, “Pyrazole boronic acid compound, pharmaceutical composition containing same, and uses thereof” (BEIJING SONGRUN PHARMACEUTICAL TECHNOLOGY CO., LTD., priority 2020, dated 2025)
Counter-ions that a name gives are not always drawn.

Assays:
[1] = test system: liver cancer cell line HepG2; assay: CellTiter-Glo tumor cell proliferation, HepG2; assay type: cell-based, human
Description: (§1) The effect of compounds on tumor cell proliferation was detected by CellTiter-Glo method. Human melanoma cell line A375, non-small cell lung cancer cell line A549, human lung adenocarcinoma cell line H1299, colorectal cancer cell line HCT116, liver cancer cell line HepG2 and gastric cancer cell line MGC80-3 were cultured in vitro. The cells were collected after growing to the logarithmic growth phase, centrifuged at 1000 rpm for 5 min, and suspended in an appropriate amount of medium after discarding the supernatant, and the cell concentration was adjusted to 2×10^4/mL. The cell suspension was inoculated onto the 384-well cell culture plate, with 50 μL per well. After being cultured in a cell incubator (37° C., 5% CO2) for 24 h, 5 μL of drug diluted by the cell culture medium was added into each well for the treatment group. Each drug was provided in triplicate. After 72 h incubation in the incubator, 20 μL of CellTiter-Glo was added into each well, and the relative luminescence unit (RLU) was measured with Multimode Microplate Reader Varioskan Flash (Thermo Scientific, USA) after placed at 37° C. for 20 min, and compared with the RLU of the control group. SigmaPlot 10.0 software was used to calculate the inhibition rate and IC50 value.

[2] = test system: human multiple myeloma RPMI 8226; assay: Pharmacodynamic study, RPMI 8226 subcutaneous xenograft; assay type: in vivo, female NOD/SCID mice; conditions: positive control 0.5 mg/kg, twice a week, tail vein, day of the last administration
Description: The anti-tumor effect in vivo was studied by using the tumor animal model obtained by subcutaneous xenotransplantation of cell lines into female NOD/SCID mice (purchased from Sipeifu Biotechnology Co., Ltd.).
RPMI 8226 cells were subcutaneously inoculated into NOD/SCID mice, and human multiple myeloma subcutaneously transplanted tumor model was successfully established 9 days after inoculating the cells. The test was divided into vehicle (0.3 mL DMSO, 0.27 mL Tween-80, 2.43 mL normal saline) control group, compound 30 low-dose group (20 mg/kg), compound 30 medium-dose group (30 mg/kg), compound 30 high-dose group (40 mg/kg), compound 39 low-dose group (5 mg/kg), compound 39 medium-dose group (10 mg/kg), and compound 39 high-dose group (15 mg/kg), and bortezomib (API purchased from Yangtze River Pharmaceutical) was used as the positive control group (0.5 mg/kg); 5 tumor-bearing mice established above in each group were administered by tail vein twice a week for nine times in total. The long diameter a (mm) of the tumor and the short diameter b (mm) of the tumor perpendicular to the long diameter were measured with digital electronic caliper twice a week. The calculation formula of tumor volume was: TV=ab^2/2; and the calculation formula of relative tumor volume was: RTV=Vt/Vo, Vo was the tumor volume measured when the mice in each group were divided into cages and administered for the first time (d1), and Vt was the tumor volume measured at the last administration. The animals were sacrificed 31 days (d22) after inoculation of RPMI 8226 cells, and weighed. The tumor mass was dissected and weighed, and the tumor inhibition rate was calculated according to the following formula: […]

[3] = test system: Human melanoma cell line A375; assay: CellTiter-Glo tumor cell proliferation, A375; assay type: cell-based; conditions: Homo sapiens, A-375, 72 h; for inhibition at 1 µM / inhibition at 10 µM: read-out: Inhibition rate A375 (%); for IC50: CellTiter-Glo
Description: as §1

[4] = test system: colorectal cancer cell line HCT116; assay: CellTiter-Glo tumor cell proliferation, HCT116; assay type: cell-based, human; conditions: Homo sapiens, HCT-116, 72 h; for inhibition at 1 µM / inhibition at 10 µM: read-out: Inhibition rate HCT116 (%); for IC50: CellTiter-Glo
Description: as §1

[5] = test system: non-small cell lung cancer cell line A549; assay: CellTiter-Glo tumor cell proliferation, A549; assay type: cell-based, human; conditions: Homo sapiens, A549, 72 h; for inhibition at 1 µM / inhibition at 10 µM: read-out: Inhibition rate A549 (%); for IC50: CellTiter-Glo
Description: as §1

[6] = test system: human liver cancer Bel7404; assay: Antitumor activity in vivo, Bel7404 transplanted in nude mice; set-up: species or system male BALB/c athymic nude mice; conditions: 15 mg/kg
Description: In the test, the Bel7404 models of human liver cancer transplanted into 6-week-old male BALB/c athymic nude mice (purchased from Shanghai Slac Laboratory Animal Co., Ltd.) with body weight of 18-20 g were used to study the anti-tumor effect of compound 30. The dose of compound 30 was 50 mg/kg (30H group), 25 mg/kg (30 M group) and 12.5 mg/kg (30 L group), respectively, and was injected intravenously twice a week for 5 times in total; at the same time, 5-FU was used as the control drug, which was injected intraperitoneally twice a week for 7 times in total (5 mice/group for the compound 30 administration group, 5 mice in 5 FU administration group; 8 mice were used as the mock group). The long diameter a (mm) and the vertical short diameter b (mm) of the tumor were measured twice a week with a digital electronic caliper. The tumor volume calculation formula was TV=ab^2/2; and the relative tumor volume calculation formula was RTV=Vt/Vo, wherein Vo was the tumor volume measured on the first day of administration (d1), and Vt was the tumor volume at each measurement. On the 22nd day of administration (d22), the animals were sacrificed and weighed. The tumor mass was dissected and weighed. The tumor inhibition rate (tumor inhibitory rate, %) was calculated according to the following formula: […]

## ((1R)-1-(2-(3-(3-(2-(S,R-2,6-dimethylmorpholino)ethoxy)phenyl)-5-phenyl-1H-pyrazol-1-yl)acetamido)-3-methylbutyl)boronic acid hydrochloride [Compound 38]
[1]; 72 h
  IC50: 126 nM

## CC(C)C[C@H](NC(=O)[C@H](Cc1ccccc1)NC(=O)c1cnccn1)B(O)O [bortezomib, reference compound]
[2]
  Relative tumor volume (x ± S): 5.17 ± 0.98
  T/C (%): 55.41%
  TGI (%): 44.59%
[2]; in mm³ (unit assumed)
  Tumor volume (x ± S): 359.97 ± 65.13

## (R)-(3-methyl-1-(2-(5-phenyl-3-(3-((5-(4-phenylpiperazin-1-yl)pentyl)oxy)phenyl)-1H-pyrazol-1-acyl)acetamido)butyl)boronic acid dihydrochloride [Compound 42]
[1]; 72 h
  IC50: 121 nM

## CC(C)C[C@H](NC(=O)Cn1nc(-c2cccc(OCCCCN3CCN(c4ccccc4)CC3)c2)cc1-c1ccccc1)B(O)O [Compound 41, (R)-(3-methyl-1-(2-(5-phenyl-3-(3-(4-(4-phenylpiperazin-1-yl)butoxy)phenyl)-1H-pyrazol-1-yl)acetamido)butyl)boronic acid dihydrochloride]
[1]; Homo sapiens, HepG2, 72 h
  IC50: 123 nM

## CC(C)C[C@H](NC(=O)Cn1nc(-c2ccccc2OS(=O)(=O)c2cccc(C(F)(F)F)c2)cc1-c1ccc(-c2ccccc2)cc1)B(O)O [Compound 22, (R)-(1-(2-(5-([1,1′-biphenyl]-4-yl)-3-(2-(((3-(trifluoromethyl)phenyl)sulfonyl)oxy)phenyl)-1H-pyrazol-1-yl)acetamido)-3-methylbutyl)boronic acid]
[3]
  inhibition at 1 µM: 10.9%
  inhibition at 10 µM: 39.1%
[4]
  inhibition at 1 µM: 3.9%
  inhibition at 10 µM: 18.1%
[5]
  inhibition at 1 µM: 3.7%
  inhibition at 10 µM: 16.1%

## CC(C)C[C@H](NC(=O)Cn1nc(-c2ccccc2OS(=O)(=O)c2ccccc2C(F)(F)F)cc1-c1ccccc1)B(O)O [Compound 3, (R)-(3-methyl-1-(2-(5-phenyl-3-(2-(((2-(trifluoromethyl)phenyl)sulfonyl)oxy)phenyl)-1H-pyrazol-1-yl)acetamido)butyl)boronic acid]
[3]
  inhibition at 1 µM: 5.7%
  inhibition at 10 µM: 98.2%
[4]
  inhibition at 1 µM: 3%
  inhibition at 10 µM: 97.8%
[5]
  inhibition at 1 µM: 17.1%
  inhibition at 10 µM: 60.6%

## O=c1[nH]cc(F)c(=O)[nH]1 [Compound 5FU, 5-FU, reference compound]
[6]; ip × 7
  RTV (d22): 2.78 ± 0.37
[6]; ip × 7, d22
  Animal weight (g) (After tumor removal): 23.14 ± 0.58 g
  Inhibition rate %: 53.77%

## CC(C)C[C@H](NC(=O)Cn1nc(-c2ccccc2OS(=O)(=O)c2ccccn2)cc1-c1ccccc1)B(O)O [Compound 10, (R)-(1-(2-(3-(2-((pyridin-2-ylsulfonyl)oxy)phenyl)-5-phenyl-1H-pyrazol-1-yl)acetamido)-3-methylbutyl)boronic acid]
[3]
  inhibition at 1 µM: 1.5%
  inhibition at 10 µM: 98%
[4]
  inhibition at 1 µM: 6.6%
  inhibition at 10 µM: 98%
[5]
  inhibition at 1 µM: 0.1%
  inhibition at 10 µM: 72.9%

## CC(C)C[C@H](NC(=O)Cn1nc(-c2cccc(O)c2)cc1-c1ccccc1)B(O)O [Compound 27, (R)-(1-(2-(3-(3-hydroxyphenyl)-5-phenyl-1H-pyrazol-1-yl)acetamido)3-methylbutyl)boronic acid]
[3]
  IC50: 910 nM
[4]
  IC50: 300 nM
[5]
  IC50: 680 nM

## CC(C)C[C@H](NC(=O)Cn1nc(-c2cccc(OCCCN3CCOCC3)c2)cc1-c1ccccc1)B(O)O [Compound 31, (R)-(3-methyl-1-(2-(3-(3-(3-morpholinopropoxy)phenyl)-5-phenyl-1H-pyrazol-1-yl)acetamido)butyl)boronic acid hydrochloride]
[3]
  IC50: 690 nM
[4]
  IC50: 500 nM
[5]
  IC50: 2190 nM

## CC(C)C[C@H](NC(=O)Cn1nc(-c2cccc(OCCN(C)C)c2)cc1-c1ccccc1)B(O)O [Compound 29, (R)-(1-(2-(3-(3-(2-(dimethylamino)ethoxy)phenyl)-5-phenyl-1H-pyrazol-1-yl)acetamido)-3-methylbutyl)boronic acid hydrochloride]
[3]
  IC50: 1430 nM
[4]
  IC50: 920 nM
[5]
  IC50: 3640 nM

## CC(C)C[C@H](NC(=O)Cn1nc(-c2ccccc2OS(=O)(=O)c2cccc(Cl)c2)cc1-c1ccccc1)B(O)O [Compound 5, (R)-(1-(2-(3-(2-(((3-chlorophenyl)sulfonyl)oxy)phenyl)-5-phenyl-1H-pyrazol-1-yl)-acetamido)-3-methylbutyl)boronic acid]
[3]
  inhibition at 1 µM: 2.2%
  inhibition at 10 µM: 97.9%
[4]
  inhibition at 1 µM: 9%
  inhibition at 10 µM: 97.3%
[5]
  inhibition at 1 µM: 10.2%
  inhibition at 10 µM: 67.2%

## CC(C)C[C@H](NC(=O)Cn1nc(-c2ccccc2OS(=O)(=O)c2cccc(F)c2)cc1-c1ccccc1)B(O)O [Compound 4, (R)-(1-(2-(3-(2-(((3-fluorophenyl)sulfonyl)oxy)phenyl)-5-phenyl-1H-pyrazol-1-yl)-acetamido)-3-methylbutyl)boronic acid]
[3]
  inhibition at 1 µM: 5.6%
  inhibition at 10 µM: 98.2%
[4]
  inhibition at 1 µM: 6.2%
  inhibition at 10 µM: 97.6%
[5]
  inhibition at 1 µM: 15%
  inhibition at 10 µM: 69.3%

## CC(C)C[C@H](NC(=O)Cn1nc(-c2cccc(OCCCN3CCN(c4ccccc4)CC3)c2)cc1-c1ccccc1)B(O)O [Compound 40, (R)-(3-methyl-1-(2-(5-phenyl-3-(3-(3-(4-phenylpiperazin-1-yl)propoxy)phenyl)-1H-pyrazol-1-yl)acetamido)butyl)boronic acid dihydrochloride]
[1]; Homo sapiens, HepG2, 72 h
  IC50: 101 nM

## CC(C)C[C@H](NC(=O)Cn1nc(-c2ccccc2OS(=O)(=O)c2cccc(C(F)(F)F)c2)cc1-c1ccc(S(C)(=O)=O)cc1)B(O)O [Compound 19, (R)-(1-(2-(5-(4-(methylsulfonyl)phenyl)-3-(2-(((3-(trifluoromethyl)phenyl)sulfonyl)oxy)phenyl)-1H-pyrazol-1-yl)acetamido)-3-methylbutyl)boronic acid]
[3]
  inhibition at 1 µM: 4.1%
  inhibition at 10 µM: 45.2%
[4]
  inhibition at 1 µM: 14.5%
  inhibition at 10 µM: 33.9%
[5]
  inhibition at 1 µM: 8.7%
  inhibition at 10 µM: 7.9%

## CC(C)C[C@H](NC(=O)Cn1nc(-c2ccccc2OS(=O)(=O)c2cccc(C(F)(F)F)c2)cc1-c1ccco1)B(O)O [Compound 24, (R)-(1-(2-(5-(furan-2-yl)-3-(2-(((3-(trifluoromethyl)phenyl)sulfonyl)oxy)phenyl)-1H-pyrazol-1-yl)acetamido)-3-methylbutyl)boronic acid]
[3]
  inhibition at 1 µM: 14.9%
  inhibition at 10 µM: 97%
[4]
  inhibition at 1 µM: 4.9%
  inhibition at 10 µM: 97.1%
[5]
  inhibition at 1 µM: 1.9%
  inhibition at 10 µM: 66.7%
